How the values were obtained:
Format in all cases: binding
Set-up in all cases: KINOMEscan: ABL1(F317L)-phosphorylated / KINOMEscan: ABL1(H396P)-nonphosphorylated / KINOMEscan: ABL1(H396P)-phosphorylated / KINOMEscan: ABL1(M351T)-phosphorylated / KINOMEscan: ABL1(T315I)-phosphorylated / KINOMEscan: ABL1-nonphosphorylated / KINOMEscan: ABL1-phosphorylated / KINOMEscan: ACVR2A / KINOMEscan: ACVR2B / KINOMEscan: ADCK3 / KINOMEscan: ADCK4 / KINOMEscan: AKT1 / KINOMEscan: AKT3 / KINOMEscan: ALK / KINOMEscan: ARK5 / KINOMEscan: AURKA / KINOMEscan: AURKC / KINOMEscan: BIKE / KINOMEscan: BMPR1A / KINOMEscan: BMPR1B / KINOMEscan: BMX / KINOMEscan: BRK / KINOMEscan: BRSK1 / KINOMEscan: BRSK2 / KINOMEscan: CAMK1 / KINOMEscan: CAMK1D / KINOMEscan: CAMK1G / KINOMEscan: CAMK2A / KINOMEscan: CAMK2B / KINOMEscan: AAK1 / KINOMEscan: CAMK2D / KINOMEscan: CAMK2G / KINOMEscan: ABL1(F317I)-nonphosphorylated / KINOMEscan: ABL1(F317I)-phosphorylated / KINOMEscan: ABL1(F317L)-nonphosphorylated: unit: % Ctrl
Conditions in all cases: Compound Concentration 10 µM
[1] = target: T1, panel of 442 kinases (Homo sapiens, UniProt Q14012)
T1 construct: purchased KINOMEscan
T1 sequence (Q14012 whole entry): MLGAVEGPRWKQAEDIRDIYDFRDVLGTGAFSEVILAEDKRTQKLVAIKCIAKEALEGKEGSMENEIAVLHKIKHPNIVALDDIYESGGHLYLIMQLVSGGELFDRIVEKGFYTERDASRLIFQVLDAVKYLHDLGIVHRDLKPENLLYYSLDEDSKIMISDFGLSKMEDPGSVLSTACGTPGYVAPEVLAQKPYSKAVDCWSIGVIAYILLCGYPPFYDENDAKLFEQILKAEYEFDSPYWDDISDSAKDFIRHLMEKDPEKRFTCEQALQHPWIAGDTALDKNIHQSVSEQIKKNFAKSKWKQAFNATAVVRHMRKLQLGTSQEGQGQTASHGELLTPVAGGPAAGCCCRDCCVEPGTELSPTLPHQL
Text: (§1) We assessed the selectivity of members of this scaffold using the KINOMEscan methodology across a near comprehensive panel of 442 kinases [[18,27]].

[2] = target: T2, panel of 442 kinases (Homo sapiens, UniProt P10721, D816H)
T2 construct: purchased KINOMEscan
T2 sequence (P10721 26-976 D816H): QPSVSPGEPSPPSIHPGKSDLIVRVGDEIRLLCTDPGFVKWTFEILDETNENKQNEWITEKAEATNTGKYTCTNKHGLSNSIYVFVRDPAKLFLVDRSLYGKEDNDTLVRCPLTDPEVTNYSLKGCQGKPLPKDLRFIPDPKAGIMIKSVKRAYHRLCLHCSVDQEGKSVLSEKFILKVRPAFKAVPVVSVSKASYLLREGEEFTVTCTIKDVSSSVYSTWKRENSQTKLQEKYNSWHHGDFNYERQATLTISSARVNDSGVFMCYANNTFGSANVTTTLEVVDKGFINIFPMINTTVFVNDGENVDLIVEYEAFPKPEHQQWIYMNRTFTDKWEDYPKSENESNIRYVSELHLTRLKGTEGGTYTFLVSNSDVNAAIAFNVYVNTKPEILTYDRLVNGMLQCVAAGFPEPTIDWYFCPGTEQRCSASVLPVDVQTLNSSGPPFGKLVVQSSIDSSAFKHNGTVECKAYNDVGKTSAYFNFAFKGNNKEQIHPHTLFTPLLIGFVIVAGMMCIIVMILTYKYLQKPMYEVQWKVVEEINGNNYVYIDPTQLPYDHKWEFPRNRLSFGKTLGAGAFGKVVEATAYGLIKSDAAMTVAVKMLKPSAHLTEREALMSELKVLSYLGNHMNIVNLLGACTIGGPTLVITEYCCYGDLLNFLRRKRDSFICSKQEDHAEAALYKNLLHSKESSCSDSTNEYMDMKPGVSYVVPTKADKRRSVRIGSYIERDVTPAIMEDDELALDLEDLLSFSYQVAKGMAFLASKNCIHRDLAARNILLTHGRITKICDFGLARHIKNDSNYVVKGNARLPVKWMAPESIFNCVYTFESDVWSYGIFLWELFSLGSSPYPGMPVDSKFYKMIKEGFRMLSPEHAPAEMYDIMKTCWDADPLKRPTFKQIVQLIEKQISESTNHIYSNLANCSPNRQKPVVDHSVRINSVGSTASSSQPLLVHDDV
Text: as §1

[3] = target: T3, panel of 442 kinases (Homo sapiens, UniProt O60674)
T3 construct: purchased KINOMEscan
T3 sequence (O60674 whole entry): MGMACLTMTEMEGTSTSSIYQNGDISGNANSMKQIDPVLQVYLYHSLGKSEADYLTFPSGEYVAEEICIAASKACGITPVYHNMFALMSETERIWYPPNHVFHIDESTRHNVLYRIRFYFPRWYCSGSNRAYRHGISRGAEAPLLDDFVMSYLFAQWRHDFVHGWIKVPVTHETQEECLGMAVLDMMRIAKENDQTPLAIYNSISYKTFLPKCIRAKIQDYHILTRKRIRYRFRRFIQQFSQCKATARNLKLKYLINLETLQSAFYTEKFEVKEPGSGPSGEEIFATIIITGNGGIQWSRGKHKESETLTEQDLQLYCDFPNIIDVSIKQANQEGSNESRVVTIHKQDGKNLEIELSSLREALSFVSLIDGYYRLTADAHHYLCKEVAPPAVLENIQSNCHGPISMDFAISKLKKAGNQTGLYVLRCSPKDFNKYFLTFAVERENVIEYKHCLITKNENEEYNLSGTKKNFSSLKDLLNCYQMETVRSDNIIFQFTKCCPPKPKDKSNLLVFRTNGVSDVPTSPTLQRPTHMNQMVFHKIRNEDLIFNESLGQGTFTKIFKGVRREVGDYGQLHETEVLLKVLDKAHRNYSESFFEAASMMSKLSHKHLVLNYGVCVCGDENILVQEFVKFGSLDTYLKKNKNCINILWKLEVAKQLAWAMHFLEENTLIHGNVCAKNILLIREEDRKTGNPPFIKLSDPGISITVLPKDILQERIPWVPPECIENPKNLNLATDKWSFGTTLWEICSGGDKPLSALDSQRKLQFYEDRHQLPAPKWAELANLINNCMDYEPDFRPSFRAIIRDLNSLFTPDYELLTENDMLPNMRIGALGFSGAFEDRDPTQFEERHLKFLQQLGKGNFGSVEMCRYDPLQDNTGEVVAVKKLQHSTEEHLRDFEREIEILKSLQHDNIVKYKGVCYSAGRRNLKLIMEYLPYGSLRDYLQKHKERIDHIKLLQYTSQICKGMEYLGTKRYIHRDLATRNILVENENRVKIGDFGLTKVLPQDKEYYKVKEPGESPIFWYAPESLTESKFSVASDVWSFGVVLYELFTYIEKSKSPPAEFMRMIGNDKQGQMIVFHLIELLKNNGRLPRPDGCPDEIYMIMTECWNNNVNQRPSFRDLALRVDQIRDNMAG
Text: as §1

COc1cc(C(=O)N2CCC(N3CCN(C)CC3)CC2)ccc1Nc1ncc2c(n1)N(C)c1ccccc1C(=O)N2C [15 (LRRK2-IN-1)]
KINOMEscan: CAMK1 [1]: 55 | KINOMEscan: KIT(D816H) [2]: 100 | KINOMEscan: JAK2(JH1domain-catalytic) [3]: 70

COc1cc(C(=O)N2CCC(N3CCN(C)CC3)CC2)ccc1Nc1ncc2c(n1)N1CCc3cccc(c31)C(=O)N2C [Compound 24]
KINOMEscan: CAMK1 [1]: 68

COc1cc(C(=O)N2CCC(N3CCN(C)CC3)CC2)ccc1Nc1ncc2c(n1)N(C1CCCC1)c1ccccc1C(=O)N2C [Compound 25, 11-cyclopentyl-2-((2-methoxy-4-(4-(4-methylpiperazin-1-yl)piperidine-1-carbonyl)phenyl)amino)-5-methyl-5H-benzo[e]pyrimido[5,4-b][1,4]diazepin-6(11H)-one]
KINOMEscan: CAMK1 [1]: 48 | KINOMEscan: KIT(D816H) [2]: 100 | KINOMEscan: JAK2(JH1domain-catalytic) [3]: 95

CCOc1cc(C(=O)N2CCC(N3CCN(C)CC3)CC2)ccc1Nc1ncc2c(n1)N(C1CCCC1)c1ccccc1C(=O)N2C [Compound 26]
KINOMEscan: CAMK1 [1]: 37 | KINOMEscan: KIT(D816H) [2]: 100 | KINOMEscan: JAK2(JH1domain-catalytic) [3]: 100

Source: publication PMC3914206
